Experimental data taken from PubChem BioAssay (NCI).
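Cultured in 96-well plates, cells were exposed to test compound for 48 hours across five concentrations. TGI marks complete inhibition of growth.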 Peptide text beside a SMILES is read from it. * marks the point of attachment. Boc = CC(C)(C)OC(=O)*

Experiments:
Test in all cases: inhibition of tumour cell growth, NCI panel, 48 h
U251 CNS = tested on: U251 CNS
MDA-MB-435 = tested on: MDA-MB-435
MCF7 breast = tested on: MCF7 breast
A498 renal = tested on: A498 renal
786-0 renal = tested on: 786-0 renal
SF-268 CNS = tested on: SF-268 CNS
NCI-H460 lung = tested on: NCI-H460 lung
UACC-62 melanoma = tested on: UACC-62 melanoma
HS 578T breast = tested on: HS 578T breast
HOP-62 NSCLC = tested on: HOP-62 NSCLC

Structure (SMILES)	TGI (U251 CNS)	TGI (MDA-MB-435)	TGI (MCF7 breast)	TGI (A498 renal)	TGI (786-0 renal)	TGI (SF-268 CNS)	TGI (NCI-H460 lung)	TGI (UACC-62 melanoma)	TGI (HS 578T breast)	TGI (HOP-62 NSCLC)
C/C(=C/CC[C@](C)(OC1OC(CO)C(O)C(O)C1O)[C@H]1CC[C@]2(C)[C@@H]1CC[C@@H]1[C@@]3(C)CC[C@H](O)C(C)(C)[C@@H]3C[C@H](O)[C@]12C)CO (stereo partly drawn)	28.5 µM	> 100 µM	> 100 µM	> 100 µM	61.2 µM	90.7 µM	48.9 µM	58.3 µM	55.3 µM	69.9 µM
COC(=O)c1ccc(OCc2ccc3nc(-c4ccccc4)c(Cl)nc3c2)cc1	> 100 µM	> 100 µM	> 100 µM	> 100 µM	48.9 µM	> 100 µM	> 100 µM	> 100 µM	99.4 µM	> 100 µM
CCOc1cc(C=O)ccc1O	> 100 µM	> 100 µM	> 100 µM	–	> 100 µM	> 100 µM	> 100 µM	–	> 100 µM	> 100 µM
Cc1cc(S(=O)(=O)NC(=NCC(=O)NN)NN)c(S)cc1Cl	> 10 µM	> 10 µM	> 10 µM	> 10 µM	> 10 µM	> 10 µM	> 10 µM	> 10 µM	> 10 µM	> 10 µM
c1ccc(C/C(=N\Nc2nc3ccccc3o2)c2ccccn2)cc1	5.32 µM	12.7 µM	0.0215 µM	1.69 µM	0.136 µM	0.921 µM	2.27 µM	2.49 µM	29 µM	1.55 µM
COCCCN1C(=O)C2c3[nH]c4ccccc4c3C3CCC(C(C)(C)C)CC3C2C1=O (stereo not drawn)	34.5 µM	> 100 µM	56.2 µM	–	63.1 µM	> 100 µM	36.2 µM	> 10 µM	87.6 µM	52.2 µM
CC(=O)Nc1ccc(C(=O)N2N=C(C)/C(=C/c3cccc(O)c3)C2=O)cc1	> 100 µM	–	–	–	> 100 µM	> 100 µM	> 100 µM	–	–	> 100 µM
CSc1nc2c(ncn2C2OCC(O)C(O)C2O)c(=O)[nH]1 (stereo not drawn)	> 100 µM	–	> 100 µM	> 100 µM	–	> 100 µM	> 100 µM	> 100 µM	–	> 100 µM
CSCCC(NC(=O)C(CC(C)C)NC(=O)CNC(=O)OC(C)(C)C)C(=O)N(C)C (stereo not drawn) (Boc-Gly-Leu-Met-NMe2; configuration not given here)	> 100 µM	> 100 µM	> 100 µM	> 100 µM	> 100 µM	> 100 µM	–	> 100 µM	> 100 µM	–
Cc1c(-c2coc(-c3ccc(Cl)cc3)n2)c(=O)n(-c2ccccc2)n1C	> 100 µM	–	–	> 100 µM	> 100 µM	> 100 µM	> 100 µM	> 100 µM	–	> 100 µM
COc1cc(C2S/C(=C/c3ccccc3)C(=O)N2c2ccc(Cl)cc2)cc(OC)c1OC (stereo not drawn)	> 94.1 µM	24.8 µM	> 100 µM	> 100 µM	> 100 µM	> 100 µM	–	> 100 µM	> 100 µM	> 100 µM
Cc1cccc(N2CCN(S(=O)(=O)c3ccc(Cl)cc3)C2=N)c1C	> 100 µM	> 100 µM	> 100 µM	> 100 µM	> 100 µM	> 100 µM	–	> 100 µM	–	–
COc1ccc(C[C@H]2COC(=O)[C@@H]2Cc2cc(OC)c(OC)c(OC)c2)cc1OC	> 100 µM	> 100 µM	> 100 µM	–	> 100 µM	> 100 µM	> 100 µM	> 100 µM	> 100 µM	> 100 µM
O=C1N2CCc3c([nH]c4ccccc34)C23CC2CCCC12S3 (stereo not drawn)	> 50 µM	> 50 µM	> 50 µM	> 50 µM	> 50 µM	> 50 µM	–	> 50 µM	> 50 µM	> 50 µM
CC(C)CC1c2[nH]c3ccccc3c2C[C@H]2C(=O)NC(COC(C)(C)C)C(=O)N12 (stereo partly drawn)	41 µM	39.9 µM	> 100 µM	> 100 µM	98.5 µM	57.5 µM	–	49.5 µM	37 µM	79.3 µM
Cc1[nH]c(=O)nc(N/N=C/c2ccc(O)cc2)c1C(=O)Nc1ccc(Cl)cc1	> 100 µM	–	–	> 100 µM	> 100 µM	> 100 µM	> 100 µM	> 100 µM	–	> 100 µM
COc1cc(CC(=O)c2ccc3c(c2)OCO3)cc(OC)c1OC	> 100 µM	–	–	> 100 µM	> 100 µM	> 100 µM	> 100 µM	> 100 µM	–	> 100 µM
COC(=O)CCc1ccc2c(c1)CC1(C2)Cc2ccc(CCC(=O)OC)cc2C1	> 100 µM	> 100 µM	> 100 µM	> 100 µM	> 100 µM	–	–	> 100 µM	> 100 µM	> 100 µM
COc1ccc(NC(=O)C2=C(SC)C(=O)N=C2N)cc1	> 100 µM	> 100 µM	–	> 100 µM	> 100 µM	> 100 µM	> 100 µM	> 100 µM	> 100 µM	> 100 µM
COc1cc2c(c(OC)c1OC)-c1ccc(SC)c(=O)cc1[C@@H](NC(=O)c1ccc(C#N)cc1)CC2	< 0.0316 µM	–	–	–	20.9 µM	> 48.7 µM	< 0.01 µM	> 100 µM	–	56.4 µM
CC1=CC(c2ccccc2)n2c(nc3cc4ccccc4cc32)N1 (stereo not drawn)	> 100 µM	> 100 µM	> 100 µM	> 100 µM	> 100 µM	> 100 µM	> 100 µM	> 100 µM	> 100 µM	–
CN1C(=O)[C@@]2(C=CC3(CC2)OCCO3)c2ccccc21	> 50 µM	> 50 µM	> 50 µM	> 50 µM	> 50 µM	32.2 µM	> 50 µM	> 50 µM	–	> 50 µM
COc1cc2cc3c4c(cc(OC)c(OC)c4c2cc1OC)CCN3C(=O)OCCBr	> 100 µM	–	–	> 100 µM	> 100 µM	> 100 µM	> 100 µM	> 100 µM	–	–
